This assay relates to Flk1+ MPCs. Briefly: Differentiation and expansion of ECs from Flk1+ MPCs in feeder cell-free 2D Matrigel system, FACS of CD31+/CD144+ ECs. It counts as cell-based, mouse. The note with it: for differentiation and expansion of ECs compared to control: Y27632 10 μM; for increase of CD31+/CD144+ EC population compared to Control: day 6.5, E14tg2a. The protocol:
E14tg2a ESC cell line was a generous gift from Dr. Jun K. Yamashita (Kyoto University), and R1 ESC cell line was purchased from American Type Cell Culture. Mouse iPSC derived from FVB strain was a generous gift from Drs. Hyun-Jai Cho and Hyo-Soo Kim (Seoul National University Hospital). To obtain Flk1+ MPCs, ESCs and iPSCs were cultured on 0.1% gelatin-coated plates at a density of 1-2×10^3 cells/cm^2 in differentiation medium [┌−minimal essential medium (Invitrogen) supplemented with 10% fetal bovine serum (FBS)] without leukemia inhibitory factor (LIF). At day 4.5, the Flk1+ MPCs were purified by AutoMACS™Pro Separator (Miltenyi Biotec) with biotin-conjugated anti-mouse Flk1 antibody (clone AVAS12a1, eBioscience) and streptavidin MicroBeads (Miltenyi Biotec). The Flk1+MPCs were then subsequently plated onto Matrigel (BD Biosciences)-coated plates at a density of 1˜2×10^4 cells/cm^2, and were cultured in differentiation medium supplemented with VEGF-A165 (50 ng/ml, Peprotech). To purify the ECs from the differentiating Flk1+ cells, the cells were first dissociated and resuspended in HBSS/2% FBS, and were serially incubated with anti-mouse ICAM2 antibody (rat monoclonal, clone 3C4, Biolegend) for 10 min and with anti-rat IgG Microbead (Miltenyi Biotec) for 15 min. […] VEGF-Trap was prepared as previously described. Various signaling inhibitors and activators including SB203580, PD98059, KT5720, Go6976, KT5823, LY294002, rapamycin, Y27632, SB431542, Rho-kinase inhibitor (RKI; H-1152, isoquinolinesulfonamide), and Rho-kinase inhibitor II (RKI-II; pyridyl urea) were purchased from Calbiochem and Sigma-Aldrich.
Cells were harvested with 0.25% trypsin-EDTA (Invitrogen) or dissociation buffer (Invitrogen) and resuspended in HBSS/2% FBS at 1×10^6 cells per 100┌ l. The cells were incubated for 20 min with the following antibodies: biotin-conjugated anti-mouse Flk1 (clone AVAS12a1, eBioscience), allophycocyanin (APC)-conjugated anti-mouse CD140a (clone APA5, eBioscience), phycoerythrin(PE)-conjugated anti-mouse CD31 (clone 390, eBioscience), Alexa Fluor® 647-conjugated anti-mouse CD144 (clone BV13, eBioscience), PE-conjugated anti-mouse D114 (clone HMD4-1, Biolegend), PE-conjugated anti-mouse Tie2 (clone TEK4, eBioscience), PE-conjugated anti-mouse Endoglin (clone MJ7/18, Biolegend), anti-mouse ICAM2 (clone 3C4, Biolegend), APC-conjugated anti-mouse CD140b (clone APBS, eBioscience), PE-conjugated anti-mouse LYVE1 (clone ALY7, eBioscience), anti-mouse VEGFR3 (goat polyclonal, R&D systems), anti-mouse EphB4 (clone VEB4-7E4, Hycult biotech), and PE-conjugated anti-mouse Notch1 (clone HMN1-12, Biolegend). After washing in HBSS/2% FBS twice, the cells were incubated with the following secondary antibodies: PE-conjugated streptavidin (eBioscience), PE-conjugated anti-rat IgG2a (eBioscience), and FITC-conjugated anti-goat IgG (Invitrogen). Dead cells were excluded by 7-aminoactinomycin D (7-AAD, Invitrogen).
Flk1+ MPCs derived from mouse ESCs are capable of differentiating into ECs, hematopoietic cells, mural cells (MCs), and cardiomyocytes. To avoid cell contamination from using feeder cells for differentiation of Flk1+ MPCs, we have established a feeder cell-free 2D Matrigel system (FIG. 1A). Flk1+ MPCs were differentiated from E14tg2a ESC cell line, and when the Flk1+ MPCs were purified at day 4.5 and cultured on Matrigel-coated plates in the differentiation medium, colonies of CD144+ ECs surrounded by ┌ SMA+MCs were formed (FIG. 1B). At day 6.5, population of CD144+/CD31+ ECs grown in differentiation medium was ˜4%, whereas the same EC population was increased up to ˜20% when VEGF-A (50 ng/ml) was supplemented (FIG. 1C). For following experiments, we chose to use 50 ng/ml of VEGF-A (hereafter referred to as VEGF-A) based on its maximal effect on differentiation and expansion of ECs from Flk1+ MPCs.

The source of these data is patent US20150368617A1, “METHOD FOR FORMING ENDOTHELIAL CELLS” (Korea Advanced Institute of Science and Technology (KAIST), priority 2012, published 2015).

As for `C[C@@H](N)[C@H]1CC[C@H](C(=O)Nc2ccncc2)CC1` [Y27632], the “total number of CD31+/CD144+ ECs from Flk1+ MPCs” value (10 μM Y27632 plus VEGF-A compared to only VEGF-A (Control)) is recorded as approximately 4.2 fold. Moreover, where the note is “48 hrs after removal of the non-adherent cells at 6 hrs”, the “percentage of EC population compared to control” value stood at 1.4 fold. For the same compound, the “differentiation and expansion of ECs compared to control” value is reported as 1.6 fold (R1 ESC cell line) and 5.9 fold (iPSC). Moreover, the “increase of CD31+/CD144+ EC population compared to Control” value (Y27632 1 μM with VEGF-A 50 ng/ml) was determined as 1.8 fold and the “increase of CD31+/CD144+ EC population compared to Control” value (Y27632 10 μM with VEGF-A 50 ng/ml) was 4.1 fold. The “percentage of EC population and total cell number, dose-dependent” value (various concentrations of Y27632 with VEGF-A) is recorded as “increased”.
